In publication PMC3823830 (Anesthesiology, 2013):
Entries after “also recorded” stand apart in the source; their conditions may differ. Like-named read-outs stand apart in the source and are kept apart here.

Key:
[1] = system: P-gp; details: humans; cited from earlier work
[2] = system: P-gp; details: cited from earlier work
[3] = system: human P-gp; details: cited from earlier work
[4] = system: P-gp; details: mouse, in vivo; cited from earlier work
[5] = Compartmental pharmacokinetic modeling of morphine and morphine glucuronides; format: in vivo, human; details: for Delay time (appearance of the metabolite in plasma): set at 0.01 h for M-3-G when not estimable; for VSS of morphine glucuronide: fixed at 0.2 × body mass (kg); for Vd / clearance: both, human, plasma, intravenous; for VC (central volume): constrained to be the same in both sessions
[6] = cited from earlier work
[7] = clinical; details: both, human, plasma, iv, 0.1 mg/kg
[8] = system: healthy volunteers; details: average; cyclosporine did not change this delay
[9] = system: healthy volunteers; details: morphine 0.1 mg/kg
[10] = system: healthy volunteers; experiment: Pharmacokinetic-pharmacodynamic effect-site modeling of miosis; details: for Predicted maximum biophase concentration: model-predicted
[11] = system: P-gp; details: bovine brain capillary cell P-gp-mediated transport; cited from earlier work
[12] = system: P-gp; details: rats; cited from earlier work
[13] = system: mdr1a (murine MDR1 homologue); details: cited from earlier work
[14] = system: P-gp; details: P-gp-overexpressing cells; cited from earlier work
[15] = with cyclosporine, median (range)

Question: For `C/C=C/C[C@@H](C)C(=O)[C@H]1C(=O)N[C@@H](C(C)C)C(=O)N(C)CC(=O)N(C)[C@@H](CC(C)C)C(=O)N[C@@H](C(C)C)C(=O)N(C)[C@@H](CC(C)C)C(=O)N[C@@H](C)C(=O)N[C@H](C)C(=O)N(C)[C@@H](CC(C)C)C(=O)N(C)[C@@H](CC(C)C)C(=O)N(C)[C@@H](C(C)C)C(=O)N1C` [PSC833], which “Effect on morphine-related respiratory depression (and drowsiness)” value [1] is on record?
Answer: The value was “did not significantly change; also recorded: no effect”.

Question: Which IC50 [2] does the source give for `C=C[C@H]1C[N@@]2CC[C@H]1C[C@@H]2[C@@H](O)c1ccnc2ccc(OC)cc12` [Quinidine] here?
Answer: Its IC50 is 3 µM.

Question: What about the IC50 [3] of the same compound?
Answer: The IC50 was 34 µM.

Question: What about the IC50 [4] of the same compound?
Answer: Its IC50 is 36 µM.

Question: With `CN1CC[C@]23c4c5ccc(O[C@@H]6O[C@H](C(=O)O)[C@@H](O)[C@H](O)[C@H]6O)c4O[C@H]2[C@@H](O)C=C[C@H]3[C@H]1C5` [Morphine-3-glucuronide, morphine-3-glucuronide] as the compound, how does the “ClE (glucuronide elimination clearance)” value ([5]; control, median (range)) read?
Answer: The value was 8.4 (5.3 to 12.4) L/h.

Question: And the “Fraction eliminated (percent of morphine dose eliminated as the glucuronide metabolite)” value ([5]; control, median (range))?
Answer: The value was “approximately 40%”.

Question: What about the “Fraction eliminated (percent of morphine dose eliminated as the glucuronide metabolite)” value ([5]; control, median (range), […]) of the same compound?
Answer: Its value is 40.5 (27 to 52) %.

Question: And the “Delay time (appearance of the metabolite in plasma)” value (“Delay time” for short) ([5]; control, median (range))?
Answer: Its value is 0.010 (0.003 to 0.09) h.

Question: And the “CLEM-3-G (elimination clearance represented by metabolism to morphine-glucuronide)” value ([5]; control, CLE × percent eliminated as glucuronide, mean ± SD)?
Answer: Its value is 39.0 ± 14.8 L/h.

Question: And the “VSS of morphine glucuronide” value ([5]; control, mean ± SD)?
Answer: Its value is 15.0 ± 2.5 L.

Question: What about the “Decrease in median glucuronide elimination clearance by cyclosporine” value ([5]; cyclosporine vs control) of the same compound?
Answer: Its value is “more than 10%”.

Question: What about the “ClE (glucuronide elimination clearance)” value [5, 15] of the same compound?
Answer: Its value is 7.5 (3.7 to 14.0) ^@ L/h.

Question: What about the “Fraction eliminated (percent of morphine dose eliminated as the glucuronide metabolite)” value [5, 15] of the same compound?
Answer: The value was “approximately 40%”.

Question: And the “Fraction eliminated (percent of morphine dose eliminated as the glucuronide metabolite)” value ([5]; with cyclosporine, median (range), […])?
Answer: Its value is 43.4 (21 to 73) %.

Question: What about the “Delay time” value [5, 15] of the same compound?
Answer: Its value is 0.022 (0.003 to 0.13) ^& h.

Question: What about the “CLEM-3-G (elimination clearance represented by metabolism to morphine-glucuronide)” value ([5]; with cyclosporine, CLE × percent eliminated as glucuronide, mean ± SD) of the same compound?
Answer: The value was 35.3 ± 13.4 L/h.

Question: And the “VSS of morphine glucuronide” value ([5]; with cyclosporine, mean ± SD)?
Answer: Its value is 15.0 ± 2.5 L.

Question: And the “Time of peak plasma concentration after the end of the morphine infusion” value (control)?
Answer: Its value is 0.2 h.

Question: And the “Plasma AUC ratio (morphine glucuronide/morphine)” value (control, mean ± SD)?
Answer: Its value is 5.0 ± 1.2.

Question: And the “Plasma Tmax” value (control, relative to start of morphine infusion, mean ± SD)?
Answer: The value was 1.2 ± 0.2 h.

Question: What about the “Delay of time to peak plasma concentration by cyclosporine” value (cyclosporine vs control) of the same compound?
Answer: The value was 0.4 h.

Question: And the “Plasma AUC ratio (morphine glucuronide/morphine)” value (with cyclosporine, mean ± SD)?
Answer: Its value is 5.3 ± 1.1.

Question: And the Clinical effect [6]?
Answer: The Clinical effect was “no clinical effect”.

Question: For `CN1CC[C@]23c4c5ccc(O)c4O[C@H]2[C@@H](O[C@@H]2O[C@H](C(=O)O)[C@@H](O)[C@H](O)[C@H]2O)C=C[C@H]3[C@H]1C5` [Morphine-6-glucuronide, morphine-6-glucuronide], which AUC(0-inf) [7] is on record?
Answer: Its AUC(0-inf) is 117 ± 32 ng·h/mL.

Question: And the Cmax [7]?
Answer: Its Cmax is 24.9 ± 5.2 ng/mL.

Question: And the half-life [7]?
Answer: Its half-life is 2.8 ± 1.2 h.

Question: And the Vd [5]?
Answer: The Vd was 15 ± 2.5 L.

Question: And the Vd ([5]; 0.1 mg/kg)?
Answer: The Vd was 15 ± 2.5 L.

Question: What about the clearance ([5]; 0.1 mg/kg, CLEM-6-G (elimination clearance represented by metabolism to morphine-glucuronide), control, CLE × percent eliminated as glucuronide, mean ± SD) of the same compound?
Answer: The clearance was 138 mL/min.

Question: What about the clearance ([5]; 0.1 mg/kg, ClE (glucuronide elimination clearance), control, median (range)) of the same compound?
Answer: The clearance was 160 mL/min.

Question: And the clearance ([5]; CLEM-6-G (elimination clearance represented by metabolism to morphine-glucuronide), with cyclosporine, CLE × percent eliminated as glucuronide, mean ± SD)?
Answer: Its clearance is 103 mL/min.

Question: And the “Fraction eliminated (percent of morphine dose eliminated as the glucuronide metabolite)” value ([5]; control, median (range), listed as Morphine-6- glucuronide)?
Answer: The value was 8.1 (4.9 to 12.5) %.

Question: And the “Fraction eliminated (percent of morphine dose eliminated as the glucuronide metabolite)” value ([5]; control, median (range), listed as morphine-6-glucuronide)?
Answer: Its value is 8.1%.

Question: What about the “Delay time” value ([5]; control, median (range)) of the same compound?
Answer: The value was 0.11 (0.04 to 0.34) h.

Question: What about the “Decrease in median glucuronide elimination clearance by cyclosporine” value ([5]; cyclosporine vs control) of the same compound?
Answer: Its value is about 25%.

Question: What about the “Fraction eliminated (percent of morphine dose eliminated as the glucuronide metabolite)” value ([5]; with cyclosporine, median (range), listed as Morphine-6- glucuronide) of the same compound?
Answer: Its value is 7.4 (3.3 to 16.6) ^& %.

Question: What about the “Fraction eliminated (percent of morphine dose eliminated as the glucuronide metabolite)” value ([5]; with cyclosporine, median (range), listed as morphine-6-glucuronide) of the same compound?
Answer: Its value is 7.4%.

Question: And the “Delay time” value [5, 15]?
Answer: The value was 0.18 (0.06 to 0.37) h.

Question: What about the “Plasma AUC ratio (morphine glucuronide/morphine)” value (control, mean ± SD) of the same compound?
Answer: The value was 0.88 ± 0.20.

Question: What about the “Plasma AUC ratio (morphine glucuronide/morphine)” value (with cyclosporine, mean ± SD) of the same compound?
Answer: The value was 0.85 ± 0.20.

Question: Which results are given for `CN1CC[C@]23c4c5ccc(O)c4O[C@H]2[C@@H](O)C=C[C@H]3[C@H]1C5` [Morphine]?
Answer: VC (central volume) ([5]; control, mean ± SD): 21.5 ± 4.7 L; Average peripheral volume (VP) during cyclosporine treatment less than control ([5]; cyclosporine vs control, not statistically significant): approximately 11%; VC (central volume) ([5]; with cyclosporine, mean ± SD): 21.5 ± 4.7 L; Time of maximum miosis after the end of the morphine infusion [8]: 1.6 h; Analgesic effect (thermal stimulus) [9]: negligible analgesic effects; Predicted maximum biophase concentration ([10]; after cyclosporine): 41 ± 13 ng/mL; Maximum calculated effect site morphine concentration ([10]; control (abstract)): 7.6 ± 2.9 ng/mL; Predicted maximum biophase concentration ([10]; control): 27 ± 11 ng/mL; Maximum calculated effect site morphine concentration ([10]; with cyclosporine (abstract)): 11.5 ± 3.7 ng/mL

Question: With `COc1cc2c(cc1OC)CN(CCc1ccc(NC(=O)c3cccc4c(=O)c5cccc(OC)c5[nH]c34)cc1)CC2` [GF120918] as the compound, how does the “Effect on basolateral to apical flux of morphine” value [11] read?
Answer: The value was “abolished”.

Question: What about the “Increase in morphine antinociception” value [12] of the same compound?
Answer: The value was “approximately 3 fold”.

Question: What does the source list for `CN(C)C(=O)C(CCN1CCC(O)(c2ccc(Cl)cc2)CC1)(c1ccccc1)c1ccccc1` [loperamide]?
Answer: Transport ratio in mdr1-knockout mice vs control [13]: 10.4; Efflux ratio [14]: > 20%
